Laboratory results published in ChEMBL document CHEMBL5661943, “ASAP - In vitro antiviral effect” (2024).
pEC50: −log10 of the molar value.

Columns and labels:
[1] = test system: dengue virus type 2; assay: Functional immunofluorescence assay to measure dose dependent changes in antiviral-drug inhibitory efficacy against Dengue virus type 2 Thailand/16681/84 in Vero E6/TMPRSS2 cells (cotreated with P-gp inhibitor, Elacridar). Cells are treated with antiviral candidates that are serially diluted, following infection, cells are fixed. EC50 is reported via analysis of immunofluorescence staining. The assay has been performed by Icahn School of Medicine at Mount Sinai.; type: organism-based, Chlorocebus sabaeus, VeroE6/TMPRSS2; conditions: Dengue virus
[2] = test system: Zika virus; assay: EC50 is reported via analysis of immunofluorescence staining. The assay has been performed by Icahn School of Medicine at Mount Sinai.; type: functional, organism-based, Chlorocebus sabaeus, VeroE6/TMPRSS2
[3] = test system: dengue virus type 2; assay: Functional assay to measure dose dependent changes in antiviral-drug inhibitory efficacy against Dengue virus type 2 New Guinea C in Vero E6 miRFP670 cells (cotreated with P-gp inhibitor, CP100356). Cells are treated with antiviral candidates that are serially diluted, following infection, cells are fixed. EC50 is reported via analysis of fluorescence intensity using high-content imager. The …; type: organism-based, Chlorocebus sabaeus, Vero C1008; conditions: for EC90: Baseline response 0 %, Maximum response 100 %, P-gp concentration 500 nM, P-gp inhibitor CP100356
[4] = test system: Zika virus; assay: Functional CPE-based assay to measure dose dependent changes in antiviral-drug inhibitory efficacy against Zika virus MR766 in Vero E6 miRFP670 cells (cotreated with P-gp inhibitor, CP100356). Cells are treated with antiviral candidates that are serially diluted. EC50 is reported via analysis of MTS assay as a readout of CPE. The assay has been performed by KU Leuven.; type: organism-based, Chlorocebus sabaeus, Vero C1008; conditions: Zika virus; for EC90: P-gp concentration 500 nM, P-gp inhibitor CP100356

Compound: Cc1ccc(NC(=O)c2cc(Cl)cc3[nH]ncc23)cc1CN
- pEC50 ([1]; VeroE6/TMPRSS2): < 4.30
- EC90 ([1]; VeroE6/TMPRSS2, Baseline response 0 %, Hill slope -2.664, Maximum measured 202.734 %, Maximum response 169.492 %, Minimum measured 72.11 %, P-gp concentration 2 uM, R squared 0.716, P-gp inhibitor Elacidar): > 50 µM
- pEC50 ([2]; Zika virus, VeroE6/TMPRSS2): 4.62
- EC90 ([2]; Zika virus, VeroE6/TMPRSS2, Baseline response 0 %, Hill slope -0.507, Maximum measured 128.919 %, Maximum response 100 %, Minimum measured 43.47 %, P-gp concentration 2 uM, R squared 0.43, P-gp inhibitor Elacidar): > 50 µM
- pEC50 ([3]; Dengue virus, Vero C1008): 4.53
- EC90 ([3]; Dengue virus, Vero C1008, Hill slope -1.708, Maximum measured 106.876 %, Minimum measured 12.632 %, R squared 0.516): > 50 µM
- pEC50 ([4]; Vero C1008): < 4.30
- EC90 ([4]; Vero C1008, Maximum measured -0.519 %, Minimum measured -6.318 %): > 50 µM

Compound: N#Cc1cc(C(=O)Nc2ccc3c(c2)CNC3)cc(C(F)(F)F)c1
- pEC50 ([1]; VeroE6/TMPRSS2): 4.63
- EC90 ([1]; VeroE6/TMPRSS2, Baseline response 0 %, Hill slope -2.224, Maximum measured 139.741 %, Maximum response 100 %, Minimum measured 16.816 %, P-gp concentration 2 uM, R squared 0.66, P-gp inhibitor Elacidar): > 50 µM
- pEC50 ([2]; Zika virus, VeroE6/TMPRSS2): < 4.30
- EC90 ([2]; Zika virus, VeroE6/TMPRSS2, Maximum measured 132.778 %, Minimum measured 43.807 %, P-gp concentration 2 uM, P-gp inhibitor Elacidar): > 50 µM
- pEC50 ([3]; Dengue virus, Vero C1008): < 4.30
- EC90 ([3]; Dengue virus, Vero C1008, Hill slope 0.474, Maximum measured 101.337 %, Minimum measured 73.182 %, R squared 0.159): > 50 µM
- pEC50 ([4]; Vero C1008): < 4.30
- EC90 ([4]; Vero C1008, Baseline response 0 %, Hill slope 0.826, Maximum measured 10.885 %, Maximum response 100 %, Minimum measured 0.969 %, R squared 0.373): > 50 µM

Compound: Cc1c(C(=O)Nc2cc([C@H]3CCOC3)ccn2)cc(C2CC2)n1C
- pEC50 ([1]; VeroE6/TMPRSS2): < 4.30
- EC90 ([1]; VeroE6/TMPRSS2, Maximum measured 144.829 %, Minimum measured 95.742 %, P-gp concentration 2 uM, P-gp inhibitor Elacidar): > 50 µM
- pEC50 ([2]; Zika virus, VeroE6/TMPRSS2): 6.80
- EC90 ([2]; Zika virus, VeroE6/TMPRSS2): 49.5 µM
- EC90 ([3]; Hill slope 0.336, Maximum measured 108.09 %, Minimum measured 73.455 %, R squared 0.31): > 50 µM
- pEC50 ([3]; Dengue virus, Vero C1008): < 4.30
- EC90 ([3]; Dengue virus, Vero C1008, Hill slope -3.691, Maximum measured 104.755 %, Minimum measured 84.933 %, R squared 0.225): > 50 µM
- pEC50 ([4]; Vero C1008): < 4.30
- EC90 ([4]; Vero C1008, Maximum measured 3.949 %, Minimum measured -5.577 %): > 50 µM
- EC90 ([4]; Vero C1008, Maximum measured -8.54 %, Minimum measured -21.261 %): > 50 µM

Compound: O=C(Nc1ccc2c(c1)CNC2)c1cc(Br)cc2[nH]c(Cc3ccccc3)nc12
- pEC50 ([1]; VeroE6/TMPRSS2): < 4.78
- EC90 ([1]; VeroE6/TMPRSS2, Maximum measured 134.005 %, Minimum measured 55.42 %, P-gp concentration 2 uM, P-gp inhibitor Elacidar): > 16.7 µM
- pEC50 ([2]; Zika virus, VeroE6/TMPRSS2): < 5.73
- EC90 ([2]; Zika virus, VeroE6/TMPRSS2, Maximum measured 133.577 %, Minimum measured 80.808 %, P-gp concentration 2 uM, P-gp inhibitor Elacidar): > 1.85 µM
- pEC50 ([3]; Dengue virus, Vero C1008): 5.65
- EC90 ([3]; Dengue virus, Vero C1008, Hill slope -0.825, Maximum measured 88.647 %, Minimum measured 23.774 %, R squared 0.436): > 6.25 µM

Compound: CNC(=O)[C@H](Nc1ccc2c(c1)CNC2)c1cc(Cl)cc(C2CC2)c1
- pEC50 ([1]; VeroE6/TMPRSS2): < 4.30
- EC90 ([1]; VeroE6/TMPRSS2, Maximum measured 162.297 %, Minimum measured 85.868 %, P-gp concentration 2 uM, P-gp inhibitor Elacidar): > 50 µM
- EC90 ([2]; Zika virus, VeroE6/TMPRSS2, Maximum measured 135.998 %, Minimum measured 64.507 %, P-gp concentration 2 uM, P-gp inhibitor Elacidar): > 16.7 µM
- EC90 ([2]; Zika virus, VeroE6/TMPRSS2, Baseline response 0 %, Hill slope -0.359, Maximum measured 94.864 %, Maximum response 100 %, Minimum measured 60.283 %, P-gp concentration 2 uM, R squared 0.436, P-gp inhibitor Elacidar): > 5.56 µM
- pEC50 ([2]; veroe6/tmprss2): < 4.78
- pEC50 ([4]; Vero C1008): 5.52
- EC90 ([4]; Vero C1008, Baseline response 0 %, EC90 CI (lower) 0.152 uM, EC90 CI (upper) 118.856 uM, Hill slope 6.595, Maximum measured 181.208 %, Maximum response 100 %, Minimum measured 1.929 %, R squared 0.623): 4.25 µM

Compound: O=C(Nc1cc(Cl)cc([C@H]2CN(Cc3ccccc3)C[C@@H]2c2cccc(-c3nn[nH]n3)c2)c1)OCc1ccccc1
- pEC50 ([1]; VeroE6/TMPRSS2): 5.47
- EC90 ([1]; VeroE6/TMPRSS2): 5.71 µM
- pEC50 ([2]; Zika virus, VeroE6/TMPRSS2): 5.10
- EC90 ([2]; Zika virus, VeroE6/TMPRSS2, Baseline response 15.017 %, Hill slope -78.318, Maximum measured 79.355 %, Maximum response 65.758 %, Minimum measured 8.182 %, P-gp concentration 2 uM, R squared 0.629, P-gp inhibitor Elacidar): 8.21 µM
- pEC50 ([3]; Dengue virus, Vero C1008): 5.10
- EC90 ([3]; Dengue virus, Vero C1008, EC90 CI (lower) 5.235 uM, EC90 CI (upper) 7.261 uM, Hill slope -8.911, Maximum measured 94.205 %, Minimum measured 1.534 %, R squared 0.94): 10.1 µM
